In patent US20170007561A1, “CONTEMPORANEOUS, HETEROGENEOUSLY-ORIENTED, MULTI-TARGETED THERAPEUTIC MODIFICATION AND/OR MODULATION OF DISEASE BY ADMINISTRATION OF SULFUR-CONTAINING, AMINO ACID-SPECIFIC SMALL MOLECULES” (BioNumerik Pharmaceuticals, Inc., priority 2014, published 2017):
“Also recorded” adds a separate entry of the source.

How the values were obtained:
bovine TrxR = biological target: T1, bovine TrxR (Bos taurus, UniProt O62768); assay: TrxR NADPH oxidation assay without Trx (Reaction A); type: biochemical
T1 construct: purchased American Diagnostica
T1 sequence (O62768 1-499): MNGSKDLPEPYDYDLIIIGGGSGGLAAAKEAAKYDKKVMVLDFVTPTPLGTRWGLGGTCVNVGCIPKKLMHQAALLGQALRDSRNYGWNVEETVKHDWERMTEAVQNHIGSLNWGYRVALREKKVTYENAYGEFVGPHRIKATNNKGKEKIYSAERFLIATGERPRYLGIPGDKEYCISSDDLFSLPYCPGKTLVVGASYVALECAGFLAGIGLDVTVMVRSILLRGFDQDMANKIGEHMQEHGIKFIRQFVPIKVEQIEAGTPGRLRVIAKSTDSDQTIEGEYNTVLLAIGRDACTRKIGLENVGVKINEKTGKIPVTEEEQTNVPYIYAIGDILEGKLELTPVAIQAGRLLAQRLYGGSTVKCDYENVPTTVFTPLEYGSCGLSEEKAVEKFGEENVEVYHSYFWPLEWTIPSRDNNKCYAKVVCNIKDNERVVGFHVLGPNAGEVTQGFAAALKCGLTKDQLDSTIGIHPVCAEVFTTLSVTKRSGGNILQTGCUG

[1] = biological target: T2, Mesenchymal Epithelial Transition (MET) Factor Kinase (Homo sapiens, UniProt P08581); assay: MET kinase activity (summary Table 27); type: biochemical
T2 construct: the kinase domain of MET (residues 956-end) was used in these experiments; GST (N); purchased SignalChem M52-18G-10; host or cells: Sf9
T2 sequence (P08581 956-1390 limits assumed): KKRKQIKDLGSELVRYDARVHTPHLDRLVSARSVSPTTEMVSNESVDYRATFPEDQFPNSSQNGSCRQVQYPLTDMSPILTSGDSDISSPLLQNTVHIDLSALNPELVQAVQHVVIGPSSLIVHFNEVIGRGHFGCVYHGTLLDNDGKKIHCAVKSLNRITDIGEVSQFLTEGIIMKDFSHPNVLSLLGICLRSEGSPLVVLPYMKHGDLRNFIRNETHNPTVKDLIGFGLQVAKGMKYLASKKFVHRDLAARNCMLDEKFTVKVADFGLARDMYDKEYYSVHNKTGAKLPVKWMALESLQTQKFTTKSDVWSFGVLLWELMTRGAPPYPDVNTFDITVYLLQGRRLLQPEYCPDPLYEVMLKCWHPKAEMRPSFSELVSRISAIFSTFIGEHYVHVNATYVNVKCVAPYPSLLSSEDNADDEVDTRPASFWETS

[2] = biological target: T3, human glutaredoxin (Grx1) (Homo sapiens, UniProt P35754); assay: X-ray crystallography of Tavocept-derived mesna adduct on Grx; type: binding; details: Tavocept 40 mM, 4° C. overnight
T3 construct: 6xHis (TEV-cleavable) (N, cleaved yes); made in house; host or cells: E. coli BL21 (RIPL)
T3 sequence (P35754 whole entry): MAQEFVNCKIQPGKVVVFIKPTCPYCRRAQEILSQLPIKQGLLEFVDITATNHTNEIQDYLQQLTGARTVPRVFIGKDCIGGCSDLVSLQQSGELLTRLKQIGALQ
Text: Diffraction data were collected at the Advanced Light Source (ALS) (Berkeley, Calif.). […] Data was processed using the program package MosFlm as part of the ccp4 program package.
Data was indexed, integrated, scaled and merged using the program Mosflm. […] The solution was consistent with one molecule in the crystal asymmetric unit. […] The structure solution is supported by contiguous electron density for the entire chain trace of each molecule, landmark side chain density features matching the amino acid sequence including cysteines, absence of phi-psi violations and final R/Rfree values in the normal range. […] Residues Gln39 and Glu55 have missing side-chain atoms in the final structures (side chain atoms CD, CG, OE1, NE2 and CD, OE1, OE2, respectively).

Recombinant human ERCC1 = biological target: T4, Recombinant human ERCC1 (Homo sapiens, UniProt P07992); assay: LC-MS of trypsin-digested ERCC1 after incubation with Tavocept; type: binding; details: 20 mM Tavocept, LC-MS of tryptic fragments
T4 construct: 6xHis (N); purchased Creative BioMart; host or cells: E. coli
T4 sequence (P07992 whole entry, the tested form may be a part): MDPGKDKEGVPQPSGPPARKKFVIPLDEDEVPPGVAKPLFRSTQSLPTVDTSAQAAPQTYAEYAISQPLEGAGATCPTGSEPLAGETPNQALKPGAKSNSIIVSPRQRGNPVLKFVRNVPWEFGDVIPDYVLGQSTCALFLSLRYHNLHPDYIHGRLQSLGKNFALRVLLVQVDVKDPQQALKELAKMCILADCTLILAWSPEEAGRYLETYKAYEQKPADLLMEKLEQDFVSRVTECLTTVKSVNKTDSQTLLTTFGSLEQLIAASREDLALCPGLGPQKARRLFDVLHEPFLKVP
Protocol: Recombinant human ERCC1 (1 mg; 27.8 nanomoles, Creative BioMart) was reduced using a vast excess of dithiothreitol (DTT, 100 μl of a 500 mM stock) in ammonium bicarbonate (40 mM, pH 8.0) at 37° C. for 75 minutes (total reaction volume was 900 μL). […] Each 800 μl reaction was then chromatographed over a NAP10 column. This step removed unreacted Tavocept and was used for the buffer control simply to ensure that both samples received the same handling/manipulation during the course of the experiment. The elution volume from each NAP10 column was 1.2 mL. […] Trypsin digestion reactions were incubated for 1 hour at 30° C. and then for 17 hours at room temperature (23° C.). Following the Trypsin digest, the samples were lyophilized to dryness overnight and then resuspended in a volume of approximately 100 μL water and analyzed using LC-MS. A Symmetry C18 HPLC column (Waters, Franklin, Mass.; 3.5 μm; 4.6 mm×75 mm) and a Waters Alliance liquid chromatography system (Waters 2695, Franklin, Mass., USA) coupled to a Micromass single quadropole mass detector (Micromass ZMD, Manchester, UK) were used to analyze fragments from trypsin-digested human ERCC1. The mobile phase contained 0.1% of formic acid throughout the run and the flow rate was 0.35 mL/min. […]

[3] = test system: human breast, ovarian and lymphoma cancer cell lines; assay: Paclitaxel induced apoptosis (PARP cleavage, Bcl-2 phosphorylation, DNA laddering); type: cell-based
Text: Tavocept mediates the non-enzymatic xenobiotic modification of sulfur-containing amino acid residues (e.g., cysteine) on proteins. As an engineered, non-naturally occurring agent (i.e., xenobiotic), Tavocept is autocatalytic and requires no protein cofactor to cause the xenobiotic modification of cysteine, but appears to be specific for cysteine residues located within a particular structural context (i.e., not all cysteines in a protein are so modified). Tavocept-mediated, xenobiotic modification represents a novel mechanism of action for a cancer treating agent and can be compared to a degree with post-translational modifications of cysteine residues in proteins (see, Table 3, below).

Aminopeptidase N = Aminopeptidase N (Homo sapiens, UniProt P15144); assay: Aminopeptidase N activity (summary Table 27); type: biochemical
Chain of Aminopeptidase N (P15144 whole entry): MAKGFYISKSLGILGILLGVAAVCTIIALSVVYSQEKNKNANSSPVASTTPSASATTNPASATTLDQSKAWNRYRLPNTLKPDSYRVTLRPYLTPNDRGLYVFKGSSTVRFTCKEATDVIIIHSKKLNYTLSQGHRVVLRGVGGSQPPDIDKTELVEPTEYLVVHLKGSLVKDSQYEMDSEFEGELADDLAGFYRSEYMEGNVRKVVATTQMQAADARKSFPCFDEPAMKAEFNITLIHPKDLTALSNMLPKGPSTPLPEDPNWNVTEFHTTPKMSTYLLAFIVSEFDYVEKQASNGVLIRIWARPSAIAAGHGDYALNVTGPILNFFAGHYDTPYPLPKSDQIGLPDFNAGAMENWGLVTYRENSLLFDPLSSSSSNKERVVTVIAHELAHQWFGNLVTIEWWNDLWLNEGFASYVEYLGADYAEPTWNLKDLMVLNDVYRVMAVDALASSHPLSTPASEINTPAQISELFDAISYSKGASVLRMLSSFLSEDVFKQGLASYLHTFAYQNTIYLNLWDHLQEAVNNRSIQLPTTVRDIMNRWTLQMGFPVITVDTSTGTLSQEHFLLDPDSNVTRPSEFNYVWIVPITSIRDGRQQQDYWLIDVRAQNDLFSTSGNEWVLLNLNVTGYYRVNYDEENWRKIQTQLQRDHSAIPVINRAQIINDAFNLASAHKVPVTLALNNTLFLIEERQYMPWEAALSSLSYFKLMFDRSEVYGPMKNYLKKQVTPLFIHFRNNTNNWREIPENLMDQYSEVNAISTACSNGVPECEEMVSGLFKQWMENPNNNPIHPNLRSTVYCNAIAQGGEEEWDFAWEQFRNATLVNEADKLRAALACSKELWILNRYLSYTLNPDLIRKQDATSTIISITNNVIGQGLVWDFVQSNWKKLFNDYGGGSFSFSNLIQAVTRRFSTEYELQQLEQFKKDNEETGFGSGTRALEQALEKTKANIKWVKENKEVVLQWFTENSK

O=S(=O)([O-])CCSSCCS(=O)(=O)[O-].[Na+].[Na+] [Tavocept, disodium 2,2′-dithio-bis-ethane sulfonate]
Reduction by TrxR alone (bovine TrxR; Reaction A): did not detectably reduce
NADPH Oxidation, Reaction A (bovine TrxR; TrxR alone + NADPH, no Trx, disulfide 0.5 mM): 0.3 ± 0.01 nmol/min/mL
Cellular consequence of BNP7787-modification and/or modulation: MET [1]: Modification of non-active site cysteine(s) resulting in enzyme
Mesna adduct sites on Grx by X-ray [2]: Cys7 and Cys82
ERCC1 cysteine residue carrying Tavocept-derived mesna adduct (Recombinant human ERCC1): Cys238; also recorded: Cys274
interference with paclitaxel induced apoptosis [3]: does not interfere
Cellular consequence of BNP7787-modification and/or modulation: aminopeptidase N (Aminopeptidase N): can inhibit γ-glutamyltranspeptidase and aminopeptidase N enzyme
